Measurements: ChEMBL document CHEMBL4418261, “Pyripyropene derivatives having acat2 inhibiting activity and stable to metabolizing enzymes” (2017)
One block for each molecule: values may come before it.

Assays:
[1] = biological target: T1, Sterol O-acyltransferase 2 (Mus musculus) (UniProt O88908); assay: Potency index, ratio of PRD-043 IC50 to test compound IC50 for inhibition ACAT2 in mouse hepatic microsome membranes using [1-14C]oleoyl coenzyme A as substrate incubated for 5 mins; format: microsomes
T1 sequence (whole entry): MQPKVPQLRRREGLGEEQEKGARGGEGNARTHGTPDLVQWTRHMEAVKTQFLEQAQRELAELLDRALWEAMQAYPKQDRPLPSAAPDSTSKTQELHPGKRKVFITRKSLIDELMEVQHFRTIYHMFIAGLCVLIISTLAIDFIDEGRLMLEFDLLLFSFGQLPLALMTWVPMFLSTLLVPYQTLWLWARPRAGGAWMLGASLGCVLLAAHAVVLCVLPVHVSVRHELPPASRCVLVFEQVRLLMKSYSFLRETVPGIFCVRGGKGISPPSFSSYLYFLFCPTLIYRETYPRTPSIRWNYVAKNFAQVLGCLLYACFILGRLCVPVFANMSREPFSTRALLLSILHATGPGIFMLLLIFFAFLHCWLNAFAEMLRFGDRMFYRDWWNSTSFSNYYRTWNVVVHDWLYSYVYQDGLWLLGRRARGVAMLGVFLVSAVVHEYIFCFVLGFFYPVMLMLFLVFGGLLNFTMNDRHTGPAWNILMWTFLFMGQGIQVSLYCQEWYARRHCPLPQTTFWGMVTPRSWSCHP

[2] = Half life in Sprague-Dawley rat hepatic microsomes at 6 ug/ml by LC-MS method; format: ADME, Microsome; conditions: liver microsomes

Structure (SMILES): CC(=O)OC[C@@]1(C)[C@@H]2C[C@H](OC(=O)c3cccc(Br)c3)[C@@]3(C)Oc4cc(-c5cccnc5)oc(=O)c4[C@H](O)[C@@H]3[C@@]2(C)CC[C@@H]1OC(C)=O
half-life at 6 ug/ml [2]: < 1 h

Structure (SMILES): CC(=O)OC[C@@]1(C)[C@@H]2C[C@H](OC(=O)c3ccc(C)cc3)[C@@]3(C)Oc4cc(-c5cccnc5)oc(=O)c4[C@H](O)[C@@H]3[C@@]2(C)CC[C@@H]1OC(C)=O
half-life at 6 ug/ml [2]: < 1 h

Structure (SMILES): CC(C)C(=O)OC[C@@]1(C)[C@@H]2C[C@H](OC(=O)C3CCCCC3)[C@@]3(C)Oc4cc(-c5cccnc5)oc(=O)c4[C@H](O)[C@@H]3[C@@]2(C)CC[C@@H]1OC(=O)C(C)C
Ratio IC50 [1]: 10 to 20 | half-life at 6 ug/ml [2]: > 9 h

Structure (SMILES): Cc1ccc([C@@H]2OC[C@@]3(C)[C@@H]4C[C@H](OC(=O)c5ccc(F)cc5)[C@@]5(C)Oc6cc(-c7cccnc7)oc(=O)c6[C@H](O)[C@@H]5[C@@]4(C)CC[C@@H]3O2)cc1
Ratio IC50 [1]: < 20 | half-life at 6 ug/ml [2]: > 9 h

Structure (SMILES): CC(=O)O[C@H]1CC[C@@]2(C)[C@@H](C[C@H](OC(=O)c3ccc(C#N)cc3)[C@@]3(C)Oc4cc(-c5cccnc5)oc(=O)c4[C@H](O)[C@H]23)[C@]1(C)COC(=O)c1ccccc1
Ratio IC50 [1]: 10 to 20 | half-life at 6 ug/ml [2]: > 9 h

Structure (SMILES): Cc1ccc([C@@H]2OC[C@@]3(C)[C@@H]4C[C@H](OC(=O)c5ccc(C#N)cc5)[C@@]5(C)Oc6cc(-c7cccnc7)oc(=O)c6[C@H](O)[C@@H]5[C@@]4(C)CC[C@@H]3O2)cc1
Ratio IC50 [1]: 10 to 20 | half-life at 6 ug/ml [2]: > 9 h

Structure (SMILES): COc1ccccc1[C@@H]1OC[C@@]2(C)[C@@H]3C[C@H](OC(=O)c4ccc(F)cc4)[C@@]4(C)Oc5cc(-c6cccnc6)oc(=O)c5[C@H](O)[C@@H]4[C@@]3(C)CC[C@@H]2O1
Ratio IC50 [1]: 10 to 20 | half-life at 6 ug/ml [2]: > 9 h

Structure (SMILES): COc1ccc(C(OC)O[C@H]2C[C@H]3[C@]4(C)CO[C@@H](c5ccccc5)O[C@H]4CC[C@]3(C)[C@H]3[C@@H](O)c4c(cc(-c5cccnc5)oc4=O)O[C@]23C)cc1 (some centres not stated)
Ratio IC50 [1]: 10 to 20 | half-life at 6 ug/ml [2]: > 9 h

Structure (SMILES): COc1cccc(C(=O)O[C@H]2C[C@H]3[C@](C)(COC(C)=O)[C@@H](OC(C)=O)CC[C@]3(C)[C@H]3[C@@H](O)c4c(cc(-c5cccnc5)oc4=O)O[C@]23C)c1
Ratio IC50 [1]: 1 | half-life at 6 ug/ml [2]: > 9 h

Structure (SMILES): Cc1ccccc1[C@@H]1OC[C@@]2(C)[C@@H]3C[C@H](OC(=O)c4ccc(F)cc4)[C@@]4(C)Oc5cc(-c6cccnc6)oc(=O)c5[C@H](O)[C@@H]4[C@@]3(C)CC[C@@H]2O1
Ratio IC50 [1]: 10 to 20 | half-life at 6 ug/ml [2]: > 9 h

Structure (SMILES): C[C@@]12CO[C@@H](c3ccccc3F)O[C@H]1CC[C@@]1(C)[C@H]2C[C@H](OC(=O)c2ccc(F)cc2)[C@@]2(C)Oc3cc(-c4cccnc4)oc(=O)c3[C@H](O)[C@H]12
Ratio IC50 [1]: 10 to 20 | half-life at 6 ug/ml [2]: > 9 h

Structure (SMILES): C[C@@]12CO[C@@H](c3ccccc3)O[C@H]1CC[C@@]1(C)[C@H]2C[C@H](OC(=O)c2ccccc2)[C@@]2(C)Oc3cc(-c4cccnc4)oc(=O)c3[C@H](O)[C@H]12
Ratio IC50 [1]: 10 to 20 | half-life at 6 ug/ml [2]: > 9 h

Structure (SMILES): Cc1cccc(C)c1[C@@H]1OC[C@@]2(C)[C@@H]3C[C@H](OC(=O)c4ccc(C#N)cc4)[C@@]4(C)Oc5cc(-c6cccnc6)oc(=O)c5[C@H](O)[C@@H]4[C@@]3(C)CC[C@@H]2O1
Ratio IC50 [1]: 10 to 20 | half-life at 6 ug/ml [2]: > 9 h

Structure (SMILES): CC(=O)OC[C@@]1(C)[C@@H]2C[C@H](OC(C)=O)[C@@]3(C)Oc4cc(-c5cccnc5)oc(=O)c4[C@H](O)[C@@H]3[C@@]2(C)CC[C@@H]1OC(C)=O
half-life at 6 ug/ml [2]: < 1 h

Structure (SMILES): CCc1ccc(C(=O)O[C@H]2C[C@H]3[C@](C)(COC(C)=O)[C@@H](OC(C)=O)CC[C@]3(C)[C@H]3[C@@H](O)c4c(cc(-c5cccnc5)oc4=O)O[C@]23C)cc1
half-life at 6 ug/ml [2]: < 1 h

Structure (SMILES): CC(C)C(=O)OC[C@@]1(C)[C@@H]2C[C@H](OC(=O)c3ccc([N+](=O)[O-])cc3)[C@@]3(C)Oc4cc(-c5cccnc5)oc(=O)c4[C@H](O)[C@@H]3[C@@]2(C)CC[C@@H]1OC(=O)C(C)C
Ratio IC50 [1]: 10 to 20 | half-life at 6 ug/ml [2]: > 9 h

Structure (SMILES): COc1ccccc1[C@@H]1OC[C@@]2(C)[C@@H]3C[C@H](OC(=O)c4ccc(C#N)cc4)[C@@]4(C)Oc5cc(-c6cccnc6)oc(=O)c5[C@H](O)[C@@H]4[C@@]3(C)CC[C@@H]2O1
Ratio IC50 [1]: 10 to 20 | half-life at 6 ug/ml [2]: > 9 h

Structure (SMILES): C[C@@]12CO[C@@H](c3ccccc3)O[C@H]1CC[C@@]1(C)[C@H]2C[C@H](OC(=O)C2CCCCC2)[C@@]2(C)Oc3cc(-c4cccnc4)oc(=O)c3[C@H](O)[C@H]12
Ratio IC50 [1]: 10 to 20 | half-life at 6 ug/ml [2]: > 9 h

Structure (SMILES): CC(=O)O[C@H]1CC[C@@]2(C)[C@@H](C[C@H](OC(C)=O)[C@@]3(C)Oc4cc(-c5cccnc5)oc(=O)c4[C@H](O)[C@H]23)[C@]1(C)COC(=O)c1ccccc1
Ratio IC50 [1]: 10 to 20 | half-life at 6 ug/ml [2]: > 9 h

Structure (SMILES): CC(=O)OC[C@@]1(C)[C@@H]2C[C@H](OC(=O)C3CCCCC3)[C@@]3(C)Oc4cc(-c5cccnc5)oc(=O)c4[C@H](O)[C@@H]3[C@@]2(C)CC[C@@H]1OC(C)=O
half-life at 6 ug/ml [2]: < 1 h

Now from value to molecule:

Ratio IC50 [1]: 10 to 20 | half-life at 6 ug/ml [2]: > 9 h
Structure (SMILES): CC(=O)O[C@H]1C[C@H]2[C@](C)(COC(=O)C(C)C)[C@@H](OC(=O)C(C)C)CC[C@]2(C)[C@H]2[C@@H](O)c3c(cc(-c4cccnc4)oc3=O)O[C@]12C

Ratio IC50 [1]: 10 to 20 | half-life at 6 ug/ml [2]: > 9 h
Structure (SMILES): Cc1ccc([C@@H]2OC[C@@]3(C)[C@@H]4C[C@H](OC(=O)c5ccc(F)cc5)[C@@]5(C)Oc6cc(-c7cccnc7)oc(=O)c6[C@H](O)[C@@H]5[C@@]4(C)CC[C@@H]3O2)c(C)c1

Ratio IC50 [1]: 10 to 20 | half-life at 6 ug/ml [2]: > 9 h
Structure (SMILES): Cc1ccc([C@@H]2OC[C@@]3(C)[C@@H]4C[C@H](OC(=O)c5ccc(C#N)cc5)[C@@]5(C)Oc6cc(-c7cccnc7)oc(=O)c6[C@H](O)[C@@H]5[C@@]4(C)CC[C@@H]3O2)c(C)c1

half-life at 6 ug/ml [2]: < 1 h
Structure (SMILES): CC(=O)OC[C@@]1(C)[C@@H]2C[C@H](OC(=O)c3ccccc3C)[C@@]3(C)Oc4cc(-c5cccnc5)oc(=O)c4[C@H](O)[C@@H]3[C@@]2(C)CC[C@@H]1OC(C)=O

Ratio IC50 [1]: 10 to 20 | half-life at 6 ug/ml [2]: > 9 h
Structure (SMILES): Cc1cccc([C@@H]2OC[C@@]3(C)[C@@H]4C[C@H](OC(=O)c5ccc(F)cc5)[C@@]5(C)Oc6cc(-c7cccnc7)oc(=O)c6[C@H](O)[C@@H]5[C@@]4(C)CC[C@@H]3O2)c1

Ratio IC50 [1]: 10 to 20 | half-life at 6 ug/ml [2]: > 9 h
Structure (SMILES): CC(=O)O[C@H]1CC[C@@]2(C)[C@@H](C[C@H](OC(=O)c3ccc(C#N)cc3)[C@@]3(C)Oc4cc(-c5cccnc5)oc(=O)c4[C@H](O)[C@H]23)[C@]1(C)COC(=O)C(C)C

Ratio IC50 [1]: < 20 | half-life at 6 ug/ml [2]: > 9 h
Structure (SMILES): CC(=O)OC[C@@]1(C)[C@@H]2C[C@H](OC(=O)c3ccc(C#N)cc3)[C@@]3(C)Oc4cc(-c5cccnc5)oc(=O)c4[C@H](O)[C@@H]3[C@@]2(C)CC[C@@H]1OC(=O)C(C)C

Ratio IC50 [1]: < 20 | half-life at 6 ug/ml [2]: > 9 h
Structure (SMILES): CN(C)c1ccc([C@@H]2OC[C@@]3(C)[C@@H]4C[C@H](OC(=O)c5ccc(C#N)cc5)[C@@]5(C)Oc6cc(-c7cccnc7)oc(=O)c6[C@H](O)[C@@H]5[C@@]4(C)CC[C@@H]3O2)cc1

Ratio IC50 [1]: 0.1 to 1 | half-life at 6 ug/ml [2]: > 9 h
Structure (SMILES): CC(C)C(=O)OC[C@@]1(C)[C@@H]2C[C@H](OC(=O)c3ccc(C#N)cc3)[C@@]3(C)Oc4cc(-c5cccnc5)oc(=O)c4[C@H](O)[C@@H]3[C@@]2(C)CC[C@@H]1OC(=O)C(C)C

Ratio IC50 [1]: 10 to 20 | half-life at 6 ug/ml [2]: > 9 h
Structure (SMILES): C[C@@]12CO[C@@H](c3cccc4ccccc34)O[C@H]1CC[C@@]1(C)[C@H]2C[C@H](OC(=O)c2ccc(C#N)cc2)[C@@]2(C)Oc3cc(-c4cccnc4)oc(=O)c3[C@H](O)[C@H]12

Ratio IC50 [1]: 10 to 20 | half-life at 6 ug/ml [2]: > 9 h
Structure (SMILES): CCCCCC(=O)OC[C@@]1(C)[C@@H]2C[C@H](OC(=O)c3ccc(C#N)cc3)[C@@]3(C)Oc4cc(-c5cccnc5)oc(=O)c4[C@H](O)[C@@H]3[C@@]2(C)CC[C@@H]1OC(=O)CCCCC

Ratio IC50 [1]: 10 to 20 | half-life at 6 ug/ml [2]: > 9 h
Structure (SMILES): CC(=O)O[C@H]1C[C@H]2[C@]3(C)CO[C@@H](c4ccccc4)O[C@H]3CC[C@]2(C)[C@H]2[C@@H](O)c3c(cc(-c4cccnc4)oc3=O)O[C@]12C

Ratio IC50 [1]: 10 to 20 | half-life at 6 ug/ml [2]: > 9 h
Structure (SMILES): C[C@@]12CO[C@@H](c3ccccc3F)O[C@H]1CC[C@@]1(C)[C@H]2C[C@H](OC(=O)c2ccc(C#N)cc2)[C@@]2(C)Oc3cc(-c4cccnc4)oc(=O)c3[C@H](O)[C@H]12

half-life at 6 ug/ml [2]: < 1 h
Structure (SMILES): CC(=O)OC[C@@]1(C)[C@@H]2C[C@H](OC(=O)c3ccccc3F)[C@@]3(C)Oc4cc(-c5cccnc5)oc(=O)c4[C@H](O)[C@@H]3[C@@]2(C)CC[C@@H]1OC(C)=O

Ratio IC50 [1]: 10 to 20 | half-life at 6 ug/ml [2]: > 9 h
Structure (SMILES): C[C@]1(COC(=O)c2ccccc2)[C@@H]2C[C@H](OC(=O)c3ccc(C#N)cc3)[C@@]3(C)Oc4cc(-c5cccnc5)oc(=O)c4[C@H](O)[C@@H]3[C@@]2(C)CC[C@@H]1OC(=O)c1ccccc1

Ratio IC50 [1]: 10 to 20 | half-life at 6 ug/ml [2]: > 9 h
Structure (SMILES): CC(=O)OC[C@@]1(C)[C@@H]2C[C@H](OC(=O)c3ccc(C#N)cc3)[C@@]3(C)Oc4cc(-c5cccnc5)oc(=O)c4[C@H](O)[C@@H]3[C@@]2(C)CC[C@@H]1OC(=O)c1ccccc1

Ratio IC50 [1]: < 20 | half-life at 6 ug/ml [2]: > 9 h
Structure (SMILES): Cc1cccc([C@@H]2OC[C@@]3(C)[C@@H]4C[C@H](OC(=O)c5ccc(C#N)cc5)[C@@]5(C)Oc6cc(-c7cccnc7)oc(=O)c6[C@H](O)[C@@H]5[C@@]4(C)CC[C@@H]3O2)c1
